# According to ChEMBL document CHEMBL1201862, “PubChem BioAssay data set” (2004):
# Active and inactive are the calls of the source.
# Assays:
# Assay type in all cases: functional
# [1] = molecular target: Dual specificity mitogen-activated protein kinase kinase 1 (Homo sapiens, UniProt Q02750); assay: Navigating the Kinome. Panel member name: MAP2K1
# [2] = molecular target: Proto-oncogene tyrosine-protein kinase receptor Ret (Homo sapiens, UniProt P07949);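 note: measured within a kinome-wide profiling panel, RET as the panel member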
# Sequence of Proto-oncogene tyrosine-protein kinase receptor Ret (P07949 whole entry): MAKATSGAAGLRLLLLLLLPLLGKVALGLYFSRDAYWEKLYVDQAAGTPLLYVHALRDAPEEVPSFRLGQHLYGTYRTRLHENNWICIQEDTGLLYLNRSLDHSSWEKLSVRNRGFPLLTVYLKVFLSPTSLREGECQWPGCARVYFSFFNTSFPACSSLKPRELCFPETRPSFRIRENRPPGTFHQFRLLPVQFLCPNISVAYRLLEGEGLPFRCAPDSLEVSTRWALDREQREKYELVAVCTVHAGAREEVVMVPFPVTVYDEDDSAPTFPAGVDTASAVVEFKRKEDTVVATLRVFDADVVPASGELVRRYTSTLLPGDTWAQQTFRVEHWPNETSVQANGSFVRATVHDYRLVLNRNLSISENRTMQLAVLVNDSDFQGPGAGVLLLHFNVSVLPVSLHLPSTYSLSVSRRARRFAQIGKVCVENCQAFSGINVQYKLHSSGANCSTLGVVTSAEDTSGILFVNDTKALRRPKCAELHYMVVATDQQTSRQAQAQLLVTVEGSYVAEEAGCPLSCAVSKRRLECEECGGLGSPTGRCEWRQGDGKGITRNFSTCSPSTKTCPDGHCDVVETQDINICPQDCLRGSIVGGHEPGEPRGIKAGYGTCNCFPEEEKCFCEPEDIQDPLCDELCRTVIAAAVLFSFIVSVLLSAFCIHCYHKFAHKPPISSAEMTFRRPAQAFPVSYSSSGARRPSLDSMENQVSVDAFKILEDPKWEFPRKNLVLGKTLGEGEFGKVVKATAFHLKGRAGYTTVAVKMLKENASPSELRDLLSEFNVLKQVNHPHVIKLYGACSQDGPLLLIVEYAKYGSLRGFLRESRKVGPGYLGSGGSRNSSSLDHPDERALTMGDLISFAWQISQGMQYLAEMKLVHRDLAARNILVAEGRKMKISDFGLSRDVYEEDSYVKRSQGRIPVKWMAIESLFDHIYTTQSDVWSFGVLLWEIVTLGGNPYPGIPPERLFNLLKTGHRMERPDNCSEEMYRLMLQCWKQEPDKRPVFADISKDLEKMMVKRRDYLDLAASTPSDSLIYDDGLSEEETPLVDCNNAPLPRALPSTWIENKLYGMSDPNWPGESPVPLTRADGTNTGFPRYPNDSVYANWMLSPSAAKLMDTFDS
# [3] = molecular target: T1, Serine/threonine-protein kinase D3 (Homo sapiens, UniProt O94806);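 note: determined within a kinase panel screen, with PRKCN as the panel member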
# T1 sequence (O94806 whole entry): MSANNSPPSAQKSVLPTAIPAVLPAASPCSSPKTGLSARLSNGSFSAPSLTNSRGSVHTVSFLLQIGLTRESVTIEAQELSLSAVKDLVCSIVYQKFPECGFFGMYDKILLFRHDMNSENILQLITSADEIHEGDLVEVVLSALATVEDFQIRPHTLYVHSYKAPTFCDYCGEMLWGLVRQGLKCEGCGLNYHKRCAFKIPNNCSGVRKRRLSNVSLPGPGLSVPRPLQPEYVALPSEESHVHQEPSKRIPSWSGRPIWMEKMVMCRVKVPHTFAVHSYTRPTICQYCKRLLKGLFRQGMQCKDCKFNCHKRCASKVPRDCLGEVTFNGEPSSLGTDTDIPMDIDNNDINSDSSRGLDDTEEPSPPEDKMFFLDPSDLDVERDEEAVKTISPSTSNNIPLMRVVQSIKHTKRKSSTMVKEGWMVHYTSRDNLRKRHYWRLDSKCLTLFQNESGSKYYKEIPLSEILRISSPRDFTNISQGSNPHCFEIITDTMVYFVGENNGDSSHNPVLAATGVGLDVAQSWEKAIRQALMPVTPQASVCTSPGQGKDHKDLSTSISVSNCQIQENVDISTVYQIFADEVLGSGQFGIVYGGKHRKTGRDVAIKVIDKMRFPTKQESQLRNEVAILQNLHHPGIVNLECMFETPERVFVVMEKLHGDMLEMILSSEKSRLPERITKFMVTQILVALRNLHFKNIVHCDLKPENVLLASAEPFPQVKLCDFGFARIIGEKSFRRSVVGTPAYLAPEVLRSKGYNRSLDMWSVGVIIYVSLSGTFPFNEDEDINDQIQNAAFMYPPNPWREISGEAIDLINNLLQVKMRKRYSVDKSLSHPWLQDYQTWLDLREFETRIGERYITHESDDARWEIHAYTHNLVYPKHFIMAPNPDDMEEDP
# [4] = molecular target: Tyrosine-protein kinase BTK (Homo sapiens, UniProt Q06187)
# Sequence of Tyrosine-protein kinase BTK (Q06187 whole entry): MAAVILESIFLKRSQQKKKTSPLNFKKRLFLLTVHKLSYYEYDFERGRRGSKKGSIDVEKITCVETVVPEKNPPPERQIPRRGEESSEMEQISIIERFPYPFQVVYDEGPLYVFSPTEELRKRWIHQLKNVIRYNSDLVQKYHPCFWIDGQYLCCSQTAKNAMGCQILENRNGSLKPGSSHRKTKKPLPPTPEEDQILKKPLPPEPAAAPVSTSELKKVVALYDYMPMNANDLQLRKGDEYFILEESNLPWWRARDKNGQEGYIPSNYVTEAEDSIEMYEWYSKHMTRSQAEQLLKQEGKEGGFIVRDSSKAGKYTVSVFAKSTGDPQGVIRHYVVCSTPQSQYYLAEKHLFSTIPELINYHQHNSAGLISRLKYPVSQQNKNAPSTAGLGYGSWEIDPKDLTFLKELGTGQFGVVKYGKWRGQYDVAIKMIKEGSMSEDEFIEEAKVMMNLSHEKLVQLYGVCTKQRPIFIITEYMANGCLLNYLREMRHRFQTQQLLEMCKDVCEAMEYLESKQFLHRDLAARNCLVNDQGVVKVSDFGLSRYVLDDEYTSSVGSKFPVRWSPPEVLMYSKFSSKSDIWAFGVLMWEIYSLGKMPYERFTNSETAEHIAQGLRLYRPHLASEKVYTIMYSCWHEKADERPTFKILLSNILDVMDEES
# [5] = molecular target: T2, Tyrosine-protein kinase JAK3 (Homo sapiens, UniProt P52333)
# T2 sequence (P52333 whole entry): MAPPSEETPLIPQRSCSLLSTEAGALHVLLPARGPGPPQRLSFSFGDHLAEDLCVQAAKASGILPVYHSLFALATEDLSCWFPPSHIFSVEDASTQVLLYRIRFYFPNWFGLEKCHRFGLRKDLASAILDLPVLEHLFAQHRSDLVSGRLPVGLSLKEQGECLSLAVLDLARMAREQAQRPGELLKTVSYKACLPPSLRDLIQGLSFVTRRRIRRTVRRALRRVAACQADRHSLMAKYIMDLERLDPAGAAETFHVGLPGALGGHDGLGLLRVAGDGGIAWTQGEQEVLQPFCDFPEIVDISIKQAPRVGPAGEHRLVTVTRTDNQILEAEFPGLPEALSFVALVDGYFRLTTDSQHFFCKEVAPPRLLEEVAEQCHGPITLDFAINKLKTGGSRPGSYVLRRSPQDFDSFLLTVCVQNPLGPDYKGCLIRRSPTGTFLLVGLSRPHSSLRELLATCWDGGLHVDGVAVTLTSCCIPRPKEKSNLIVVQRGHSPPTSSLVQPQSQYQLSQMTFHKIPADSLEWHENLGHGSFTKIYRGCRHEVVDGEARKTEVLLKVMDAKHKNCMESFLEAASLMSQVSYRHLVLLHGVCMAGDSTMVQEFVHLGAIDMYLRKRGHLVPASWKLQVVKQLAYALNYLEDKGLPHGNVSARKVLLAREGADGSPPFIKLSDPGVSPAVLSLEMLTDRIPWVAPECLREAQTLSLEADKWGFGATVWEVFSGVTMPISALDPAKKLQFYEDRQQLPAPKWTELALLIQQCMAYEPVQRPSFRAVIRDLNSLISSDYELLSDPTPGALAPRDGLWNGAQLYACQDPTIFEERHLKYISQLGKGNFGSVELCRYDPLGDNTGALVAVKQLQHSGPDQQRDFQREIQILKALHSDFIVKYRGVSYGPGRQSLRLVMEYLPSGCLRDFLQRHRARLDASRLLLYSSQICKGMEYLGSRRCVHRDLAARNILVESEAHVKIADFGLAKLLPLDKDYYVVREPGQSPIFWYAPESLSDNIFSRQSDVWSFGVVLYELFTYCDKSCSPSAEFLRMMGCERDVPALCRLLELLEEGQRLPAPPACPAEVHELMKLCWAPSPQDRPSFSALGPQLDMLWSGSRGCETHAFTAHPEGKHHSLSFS
# [6] = molecular target: LIM domain kinase 1 (Homo sapiens, UniProt P53667); assay: Navigating the Kinome. Panel member name: LIMK1
# [7] = molecular target: High affinity nerve growth factor receptor (Homo sapiens, UniProt P04629);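 note: NTRK1 tested as one member of a kinome-wide profiling panel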
# [8] = molecular target: Dual specificity tyrosine-phosphorylation-regulated kinase 1B (Homo sapiens, UniProt Q9Y463); assay: Navigating the Kinome. Panel member name: DYRK1B
# [9] = molecular target: Leucine-rich repeat serine/threonine-protein kinase 2 (Homo sapiens, UniProt Q5S007);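 note: value from a broad kinome-wide panel profiling study in which LRRK2 was one of the kinases tested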
# Sequence of Leucine-rich repeat serine/threonine-protein kinase 2 (Q5S007 whole entry): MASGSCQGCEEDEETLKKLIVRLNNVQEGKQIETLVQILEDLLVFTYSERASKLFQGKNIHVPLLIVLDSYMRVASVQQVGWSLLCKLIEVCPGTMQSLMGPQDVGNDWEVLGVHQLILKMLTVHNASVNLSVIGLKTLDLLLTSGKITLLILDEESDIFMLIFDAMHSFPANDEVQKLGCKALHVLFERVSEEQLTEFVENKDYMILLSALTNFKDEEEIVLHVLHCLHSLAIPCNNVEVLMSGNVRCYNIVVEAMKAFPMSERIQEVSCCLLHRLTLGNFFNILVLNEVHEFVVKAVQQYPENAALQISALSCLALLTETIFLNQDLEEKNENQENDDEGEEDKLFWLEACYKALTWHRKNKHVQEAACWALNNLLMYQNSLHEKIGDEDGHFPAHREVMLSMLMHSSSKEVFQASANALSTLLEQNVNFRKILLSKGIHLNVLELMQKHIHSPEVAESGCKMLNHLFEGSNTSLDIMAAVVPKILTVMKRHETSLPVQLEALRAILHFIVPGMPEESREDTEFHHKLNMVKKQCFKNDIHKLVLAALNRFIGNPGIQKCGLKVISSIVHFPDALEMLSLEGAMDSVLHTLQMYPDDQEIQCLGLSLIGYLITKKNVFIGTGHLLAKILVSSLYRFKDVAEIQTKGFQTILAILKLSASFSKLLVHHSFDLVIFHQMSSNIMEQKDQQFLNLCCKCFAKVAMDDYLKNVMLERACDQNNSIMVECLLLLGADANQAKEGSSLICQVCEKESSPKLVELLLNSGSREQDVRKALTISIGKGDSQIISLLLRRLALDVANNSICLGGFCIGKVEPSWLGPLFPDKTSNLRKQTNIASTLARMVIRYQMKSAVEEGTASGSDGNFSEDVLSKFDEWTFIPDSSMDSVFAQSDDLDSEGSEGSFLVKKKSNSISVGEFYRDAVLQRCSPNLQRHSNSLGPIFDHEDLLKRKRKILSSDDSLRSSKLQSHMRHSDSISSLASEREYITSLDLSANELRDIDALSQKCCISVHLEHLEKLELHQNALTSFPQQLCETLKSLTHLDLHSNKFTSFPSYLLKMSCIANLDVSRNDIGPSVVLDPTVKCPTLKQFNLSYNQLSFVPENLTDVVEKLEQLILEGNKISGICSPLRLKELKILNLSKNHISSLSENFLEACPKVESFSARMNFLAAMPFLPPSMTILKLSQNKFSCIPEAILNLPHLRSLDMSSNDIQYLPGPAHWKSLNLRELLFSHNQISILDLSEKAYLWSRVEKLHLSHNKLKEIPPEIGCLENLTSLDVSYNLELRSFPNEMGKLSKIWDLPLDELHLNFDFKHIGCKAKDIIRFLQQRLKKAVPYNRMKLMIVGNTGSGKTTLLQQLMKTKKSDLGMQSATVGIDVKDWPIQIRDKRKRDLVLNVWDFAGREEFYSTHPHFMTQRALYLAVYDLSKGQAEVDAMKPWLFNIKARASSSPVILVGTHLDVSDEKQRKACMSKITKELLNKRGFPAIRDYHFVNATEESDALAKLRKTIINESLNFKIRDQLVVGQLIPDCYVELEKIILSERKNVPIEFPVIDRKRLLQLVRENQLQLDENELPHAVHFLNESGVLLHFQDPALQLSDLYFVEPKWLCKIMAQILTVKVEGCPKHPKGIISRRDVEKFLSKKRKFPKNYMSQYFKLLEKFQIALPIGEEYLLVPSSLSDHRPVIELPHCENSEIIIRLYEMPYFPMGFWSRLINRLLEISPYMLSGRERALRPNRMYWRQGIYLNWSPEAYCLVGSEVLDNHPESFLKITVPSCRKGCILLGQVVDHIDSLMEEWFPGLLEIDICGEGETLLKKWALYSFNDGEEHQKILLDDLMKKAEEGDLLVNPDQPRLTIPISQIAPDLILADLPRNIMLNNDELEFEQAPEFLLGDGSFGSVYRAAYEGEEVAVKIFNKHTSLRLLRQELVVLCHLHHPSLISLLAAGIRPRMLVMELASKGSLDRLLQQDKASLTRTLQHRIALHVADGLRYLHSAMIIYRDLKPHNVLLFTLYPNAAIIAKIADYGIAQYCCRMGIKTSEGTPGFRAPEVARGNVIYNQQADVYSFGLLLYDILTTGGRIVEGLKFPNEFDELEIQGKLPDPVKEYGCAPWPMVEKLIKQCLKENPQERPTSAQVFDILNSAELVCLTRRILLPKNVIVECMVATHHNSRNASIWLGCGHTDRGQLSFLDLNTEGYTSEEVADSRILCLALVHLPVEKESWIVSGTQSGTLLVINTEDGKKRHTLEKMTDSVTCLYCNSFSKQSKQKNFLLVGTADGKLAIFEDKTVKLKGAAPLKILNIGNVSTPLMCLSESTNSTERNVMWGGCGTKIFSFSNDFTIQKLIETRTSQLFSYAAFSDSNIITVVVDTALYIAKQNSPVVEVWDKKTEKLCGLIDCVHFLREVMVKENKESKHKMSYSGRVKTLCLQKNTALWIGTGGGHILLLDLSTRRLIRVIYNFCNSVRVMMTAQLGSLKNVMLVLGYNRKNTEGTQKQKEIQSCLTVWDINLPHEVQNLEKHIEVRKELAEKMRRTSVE
# [10] = molecular target: Aurora kinase B (Homo sapiens, UniProt Q96GD4)
# Sequence of Aurora kinase B (Q96GD4 whole entry): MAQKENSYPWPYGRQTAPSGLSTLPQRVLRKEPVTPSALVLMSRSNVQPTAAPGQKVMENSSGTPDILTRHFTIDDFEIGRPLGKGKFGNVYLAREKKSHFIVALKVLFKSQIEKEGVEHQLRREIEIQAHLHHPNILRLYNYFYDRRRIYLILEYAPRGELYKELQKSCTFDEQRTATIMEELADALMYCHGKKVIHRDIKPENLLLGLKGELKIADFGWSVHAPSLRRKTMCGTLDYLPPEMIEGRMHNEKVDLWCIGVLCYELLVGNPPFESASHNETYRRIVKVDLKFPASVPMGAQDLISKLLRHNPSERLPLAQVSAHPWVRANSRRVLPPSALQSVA
# [11] = molecular target: Dual specificity protein kinase CLK4 (Homo sapiens, UniProt Q9HAZ1)
# [12] = molecular target: Calcium/calmodulin-dependent protein kinase type II subunit alpha (Homo sapiens, UniProt Q9UQM7); assay: Navigating the Kinome. Panel member name: CAMK2A
# Sequence of Calcium/calmodulin-dependent protein kinase type II subunit alpha (Q9UQM7 whole entry): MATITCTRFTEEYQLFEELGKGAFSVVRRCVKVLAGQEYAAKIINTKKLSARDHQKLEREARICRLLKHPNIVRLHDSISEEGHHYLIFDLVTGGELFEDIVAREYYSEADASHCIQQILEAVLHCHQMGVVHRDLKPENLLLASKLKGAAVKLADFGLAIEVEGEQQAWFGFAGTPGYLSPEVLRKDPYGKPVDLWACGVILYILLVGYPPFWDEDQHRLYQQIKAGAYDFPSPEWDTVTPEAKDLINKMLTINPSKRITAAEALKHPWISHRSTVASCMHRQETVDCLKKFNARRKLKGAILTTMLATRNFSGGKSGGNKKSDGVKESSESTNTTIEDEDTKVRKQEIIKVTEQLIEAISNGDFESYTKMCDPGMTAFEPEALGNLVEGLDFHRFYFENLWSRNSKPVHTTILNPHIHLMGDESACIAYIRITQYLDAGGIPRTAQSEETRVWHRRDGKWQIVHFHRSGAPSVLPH
Ki [1],Ki [2],Ki [3],Ki [4],Ki [5],Ki [6],Ki [7],Ki [8],Ki [9],Ki [10],Ki [11],Ki [12],Compound
> 3160 nM (inactive),3160 nM (active),1580 nM (active),3980 nM (active),> 5010 nM (inactive),316 nM (active),1000 nM (active),1000 nM (active),1580 nM (active),3160 nM (active),398 nM (active),3160 nM (active),Cc1ccc(C)c(NC(=O)c2cc(-c3ccco3)nc3ccccc23)c1
> 3160 nM (inactive),501 nM (active),398 nM (active),631 nM (active),251 nM (active),31.6 nM (active),> 3160 nM (inactive),316 nM (active),251 nM (active),> 3980 nM (inactive),63.1 nM (active),> 3980 nM (inactive),COc1ccc(C2=NNc3cccc4c(OC)ccc2c34)cc1OC

Compound,Ki [1],Ki [2],Ki [3],Ki [4],Ki [5],Ki [6],Ki [7],Ki [8],Ki [9],Ki [10],Ki [11],Ki [12]
CN1CCC(c2c(O)cc(O)c3c(=O)cc(-c4ccccc4Cl)oc23)C(O)C1 (stereo unspecified),> 3160 nM (inactive),> 2000 nM (inactive),316 nM (active),> 3980 nM (inactive),> 3980 nM (inactive),> 3160 nM (inactive),> 2510 nM (inactive),126 nM (active),1000 nM (active),> 5010 nM (inactive),1260 nM (active),> 3980 nM (inactive)
